“Also recorded” adds a separate entry of the source.
Key:
[1] = system: MDA-MB-231
Method: The study of the molecular disruption of CXCL12-CXCR4 with a CXCR4 antagonist, AMD3100 was expanded. We first examined the effects of AMD3100 on the proliferation of MDA-MB-231 and T47D, in co-culture with MSCs (FIGS. 1D and 1E), in the presence of two different concentrations of the antagonist (10 and 100 ng/ml) for the 48-hour culture. Parallel cultures contained vehicle.
Some studies also looked at AMD3100 in long-term breast cancer cell/MSC co-cultures. In this set of studies we determined the effect of AMD3100 when breast cancer cells were cultured with MSCs for over 48 hours since this will recapitulate in situ when breast cancer cells are expected to contact MSCs for long periods. […] Control cultures contained vehicle (−) and 2-day exposure to AMD3100 (D2).
(§1) Cultures of breast cancer cells and MSCs, alone or in co-culture, from each experimental setup were assayed for cellular proliferation and viability using the CyQuant Cell Proliferation Assay Kit (Molecular Probes; Eugene, Oreg.) and CellTiter-Blue Cell Viability Assay (Promega), respectively, according to manufacturer's specific instructions.
For determination of proliferation, cells grown in 96-well plates were frozen overnight at −70° C. The next day, thawed cells were incubated in CyQuant GR dye/cell-lysis buffer for 5 minutes at room temperature, and examined using a fluorescence microplate reader at 480 nm excitation/520 nm emission. Proliferation was calculated from a standard curve of known numbers of breast cancer cells and MSCs. To accurately assess the proliferation of breast cancer cells, but not MSC proliferation in co-culture, proliferation of MSCs grown alone were subtracted from the total cellular proliferation recorded.

[2] = system: MDA-MB-231; remark: listed apart in the source
Method: as §1
(§2) For assessment of viability, CellTiter-Blue reagent was added to cells grown in 96-well plates, and then incubated for 4 hours at 37° C. Following incubation, wells were read using a fluorescence microplate reader at 560 nm excitation/590 nm emission. Percent viability was calculated from a reference using untreated healthy cells, which were considered 100% viable, and cell-free wells containing reagent alone, which were considered 0% viable.
(§3) Breast cancer cells, cultured alone or with MSCs for 12 days, were treated with AMD3100, or untreated. After 48 hours, all cultures were exposed to carboplatin, with re-added AMD3100 in cultures that had initial AMD3100. After 72 hours, the viable cells were counted (A and B), and presented (C and D) as the mean±SD, n=3. Whole cell extracts from these experiments were analyzed by immunoblot for caspase-3 (E). Membranes were stripped and re-probed with β-actin for normalization. Representative blots are shown, n=3.
(§4) Breast cancer cells cultured in the presence or absence of MSCs for 12 days were treated for 48 hours with AMD3100, or untreated. Following 48 hours, treated and untreated cells were exposed to carboplatin for 72 hours to induce cell death. […] At the end of this regiment cell proliferation (A and B) and viability (C and D) were assessed. The results are presented as the mean±SD, n=3.

[3] = system: T47D
Method: as §1, §2, §3, §4

[4] = system: naïve breast cancer cells; experiment: Transwell assay: proliferation of naïve breast cancer cells with MSCs in the inner wells; assay type: cell-based, human; conditions: inner wells: MSCs from co-cultures with AMD3100, compared to antagonist-treated MSCs alone; 48 hours
Method: Using mechanistic studies, we next asked whether breast cancer cells proliferation by AMD3100 requires contact between MSCs and breast cancer cells. […] To address this question, we utilized a transwell assay in which “naïve” breast cancer cells, which were not previously exposed to MSCs or AMD3100, were seeded in the outer wells. MSCs from co-cultures with AMD3100 or vehicle were added to the inner wells. In parallel, only vehicle was added to the inner wells.
Breast cancer cells (5×10^4) were added to the outer well of 24-well transwell cultures, 0.4 μM insert (BD Falcon). In parallel, breast cancer cells were separated from co-cultures with MSCs by positive selection with anti-cytokeratin-conjugated; pan anti-mouse IgG Dynabeads (Invitrogen). MSCs from the negative fraction were then added to the inner wells of the transwell chamber in order to determine the effects of MSC-derived soluble factors on breast cancer cell proliferation. For neutralization of soluble IL-1α and IL-1β, anti-IL-1RI was titrated into the 24-well plates.
MSCs were co-cultured with breast cancer cells for 12 days with, or without AMD3100. The MSCs were selected and then added to the inner wells of transwell cultures. Naïve breast cancer cells were placed in the outer wells. After 48 hours, breast cancer cells were counted and the results presented as mean±SD, n=3 (A and B). […]

[5] = system: MDA-MB-231; experiment: Tumor volume of subcutaneous MDA-MB-231 (with or without MSCs) in nude BALB/c mice; assay type: in vivo
Method: To validate our in vitro studies, female nude BALB/c mice were injected subreast cancerutaneously with 10^6 matrigel-resuspended MDA-MB-231 alone or in combination with 10^6 MSCs, as per the experimental design described in FIG. 7A. Mice were divided into the following experimental groups (n=5 per group): (A) breast cancer cells injected alone; (B) breast cancer cells injected in combination with MSCs; (C) group B plus AMD3100 treatment; (D) group C plus IL-1ra co-treatment. All groups were treated with carboplatin at days 8 and 10 following initial injection of cells, and the animals euthanized at the experimental endpoint of day 12 (D12).
Female nude BALB/c mice (4 weeks) were obtained from Harlan Laboratories (Indianapolis, Ind.) and housed in a laminar flow hood at an AALAC-accredited facility. The use of mice was approved by the Institutional Animal Care and Use Committee, New Jersey Medical School (Newark, N.J.). MDA-MB-231 (10^6), alone or in combination with MSCs (10^6), in 0.1 mL and equal volume of BD Matrigel (BD Biosciences, Bedford, Mass.) were injected by subreast cancerutaneous route in the nude mice (Day 0, D0). After 4 days, the tumors were injected with AMD3100 alone or in combination with IL-1ra or vehicle (hereafter termed ‘treatment’). Mice were given a second ‘treatment’ at D8 along with a first dose of chemotherapy delivered intra-peritoneally. A second dose of chemotherapy was given at D10 and the mice euthanized at D12.
In FIG. 7, the effects of AMD3100 and carboplatin on tumor volume are represented. The method by which mice were treated is shown in (A). (B) Female BALB/c (n=5) were injected subreast cancerutaneously with matrigel and 10^6 MDA-MB-231 alone or in combination with 10^6 MSCs. The mean volumes at the first injection (day 8, D8) are normalized to 100% and the change in volumes at D10 and D12 are presented as mean±SD.

[6] = system: breast cancer cells; conditions: 12-day co-culture with MSCs, AMD3100 for the last 48 hours, compared to no treatment
Method: We studied cell cycle phase of 12-day co-cultured breast cancer cells, with or without AMD3100, as described for FIG. 2. Breast cancer cells cultured alone served as control. […] FIG. 3B illustrates a representative histogram of the proportion of cycling (peaks 2 and 3) versus non-cycling (peak 1) MDA-MB-231 co-cultured with MSCs, with (right) or without AMD3100 (left).
Breast cancer cells and MSC co-cultures were incubated with anti-cytokeratin primary and FITC-anti IgG secondary antibodies to label the breast cancer cell fraction. Cells were then treated with RNase A (1 mg/ml) and fixed with cold 70% ethanol. Cells were stained with 20 μg/ml propidium iodide (PI) solution and transferred to round bottom tubes for DNA analysis by BD FACScan. Double positive cells identified only the desired cellular fraction, consisting of breast cancer cells that incorporated the DNA dye. Cultures incubated with FITC anti-IgG alone were used as isotype controls. All analyses were performed using BD CellQuest software and percent statistics were given.
Breast cancer cells, alone or 12-day cultures with MSCs were treated with AMD3100 for the last 48 hours or untreated. At the end of the assay, cells were co-labeled with anti-cytokeratin and propidium iodide and then analyzed by flow cytometry. Results are presented as the mean percent cycling cells (S+G2/M phases)±SD, n=3 (B). […]

[7] = system: IL-1α; conditions: MDA-MB-231 transwell cultures, MSCs obtained from AMD3100-treated co-cultures, 48 hours
Method: (§5) To assess the factor(s) responsible for breast cancer cell proliferation (FIGS. 4A and 4B), media from representative (MDA-MB-231) transwell cultures were analyzed with a cytokine/growth factor microarray.
(§6) Cytokine production by MSCs in the transwell assay was assessed using the Human Cytokine Antibody Array 5 (RayBiotech; Norcross, Ga.). Briefly, after 48 hours of culture, the transwell was removed and the breast cancer cell growth media collected for cytokine determination. Background levels obtained with media alone were subtracted. The densities of spots were quantitated with UN-SCAN-IT densitometry software (Silk Scientific; Orem, Utah).

[8] = system: IL-1β; conditions: MDA-MB-231 transwell cultures, MSCs obtained from AMD3100-treated co-cultures, 48 hours
Method: as §5, §6

[9] = system: caspase-3; conditions: breast cancer cells isolated from co-culture, carboplatin added with AMD3100
Method: Whole cell extracts from breast cancer cells and MSCs were prepared in accordance with accepted methods and 20 μg were analyzed by western blots using 4-20% SDS-PAGE (Bio-Rad, Hercules, Calif.). The proteins were transferred onto polyvinylidene difluoride membranes (Perkin Elmer Life Sciences, Boston, Mass.). Membranes were incubated overnight with primary antibodies and then detected the following day by 2 hour incubation with HRP-conjugated IgG. All primary and secondary antibodies were used at final dilutions of 1/1000 and 1/2000, respectively. HRP was developed with chemiluminscence detection reagent (Perkin Elmer Life Sciences). The membranes were stripped with Restore Stripping Buffer (Pierce, Rockford, Ill.) for reprobing with other antibodies.

[10] = target: CXCR7 (Homo sapiens, UniProt P25106); conditions: cited from earlier work
Chain of CXCR7 (P25106 whole entry, species assumed): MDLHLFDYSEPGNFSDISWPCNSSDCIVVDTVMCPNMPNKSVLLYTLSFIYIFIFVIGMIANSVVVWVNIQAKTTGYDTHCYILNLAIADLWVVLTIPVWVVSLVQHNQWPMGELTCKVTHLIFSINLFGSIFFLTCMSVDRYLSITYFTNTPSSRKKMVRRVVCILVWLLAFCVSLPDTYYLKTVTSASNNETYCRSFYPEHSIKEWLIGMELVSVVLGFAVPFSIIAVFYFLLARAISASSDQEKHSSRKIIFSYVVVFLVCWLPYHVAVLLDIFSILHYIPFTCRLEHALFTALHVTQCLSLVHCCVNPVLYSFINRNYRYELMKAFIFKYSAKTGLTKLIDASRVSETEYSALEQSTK

[11] = system: primary and metastatic breast cancer; conditions: mice; cited from earlier work
[12] = system: hematopoietic stem cells (HSCs); conditions: potential side effect in combination with chemotherapy; cited from earlier work
[13] = system: T47D; experiment: CyQuant proliferation of T47D, alone or in co-culture with MSCs
[14] = MDA-MB-231 + MSCs, AMD3100 48 hours, then carboplatin 72 hours in the absence of AMD3100 (FIG. 6)
[15] = T47D + MSCs, AMD3100 48 hours, then carboplatin 72 hours in the absence of AMD3100 (FIG. 6)

For c1cc(CN2CCCNCCNCCCNCC2)ccc1CN1CCCNCCNCCCNCC1 [AMD3100], the “proliferation in 12-day (D12) co-culture with MSCs” value ([1]; MDA-MB-231 + MSCs 12 days, optimal AMD3100 during the last 48 hours, effect on the MSC-mediated decrease) was “significantly (p<0.05) reversed”, the “AMD3100 concentration of sensitivity (optimal dose for proliferation)” value ([1]; MDA-MB-231 + MSCs, 48-hour culture) was 10 ng/mL and the “proliferation of breast cancer cells in co-cultures with MSCs” value ([1]; MDA-MB-231 + MSCs, 48-hour culture, AMD3100 10 and 100 ng/ml, compared to breast cancer cells alone (FIG. 1D)) was “promoted the proliferation”. For the same compound, the “cell proliferation after AMD3100 pre-treatment and chemotherapy without the antagonist” value [1, 14] was “effect on cell proliferation and viability was lost”, the “time at which the increase in proliferation began” value ([1]; MDA-MB-231, optimal AMD3100 dose) was 1 h and the “optimum time for AMD3100-mediated proliferation” value ([1]; MDA-MB-231, optimal AMD3100 dose, various times (FIG. 1F)) was 48 h. The “proliferation of breast cancer cells alone” value ([1]; MDA-MB-231 cultured alone, 48 hours, AMD3100) was “decrease in cell proliferation”, the “cell viability with AMD3100” value [2] was “no change in cell viability” and the “resistance to carboplatin when chemotherapy was added with AMD3100” value ([2]; MDA-MB-231 + MSCs 12 days, AMD3100 48 hours then carboplatin with re-added AMD3100 72 hours) was “resistance was compromised”. The “viability after AMD3100 pre-treatment and chemotherapy without the antagonist” value [2, 14] was “effect on cell proliferation and viability was lost”, the “cell viability with AMD3100” value [3] was “no change in cell viability” and the “resistance to carboplatin when chemotherapy was added with AMD3100” value ([3]; T47D + MSCs 12 days, AMD3100 48 hours then carboplatin with re-added AMD3100 72 hours) was “resistance was compromised”. The “viability after AMD3100 pre-treatment and chemotherapy without the antagonist” value [3, 15] was “effect on cell proliferation and viability was lost”, the “naïve breast cancer cell proliferation in transwells” value [4] was “significant (p<0.05) increase” and the “mean tumor volume by D12” value ([5]; group C: breast cancer cells + MSCs, tumors injected with AMD3100, carboplatin at days 8 and 10) was “significant reduction in tumor volume; also recorded: significantly (p<0.05) reversed the chemoprotective effect of MSCs”. For the same compound, the “cycling cells (S/G2/M phase)” value [6] was “significant (p<0.05) increase in cycling cells”, the “IL-1α in transwell media, fold greater” value [7] was 3 fold and the “IL-1β in transwell media, fold greater” value [8] was 5 fold. The caspase-3 immunoreactivity [9] was “increased caspase-3 immunoreactivity”, the “action on CXCR7” value [10] was “allosteric agonist of CXCR7” and the “effect on primary and metastatic breast cancer” value [11] was “can decrease primary and metastatic breast cancer in mice”. The “overall survival for experimental lung metastases” value [11] was “no effect on the overall survival”, the “mobilization of hematopoietic stem cells” value [12] was “can mobilize hematopoietic stem cells” and the “proliferation in 12-day (D12) co-culture with MSCs” value ([13]; T47D + MSCs 12 days, optimal AMD3100 during the last 48 hours, effect on the MSC-mediated decrease) was “significantly (p<0.05) reversed”. The “AMD3100 concentration of sensitivity (optimal dose for proliferation)” value ([13]; T47D + MSCs, 48-hour culture) was 100 ng/mL, the “proliferation of breast cancer cells in co-cultures with MSCs” value ([13]; T47D + MSCs, 48-hour culture, AMD3100 10 and 100 ng/ml, compared to breast cancer cells alone (FIG. 1E)) was “promoted the proliferation” and the “cell proliferation after AMD3100 pre-treatment and chemotherapy without the antagonist” value [13, 15] was “effect on cell proliferation and viability was lost”. The “proliferation of breast cancer cells alone” value ([13]; T47D cultured alone, 48 hours, AMD3100) was “decrease in cell proliferation”, the “relation of proliferation to AMD3100 concentration” value ([13]; T47D, closed circles FIG. 1E, 10 and 100 ng/ml) was “inversely related to AMD3100 concentration” and the “time at which the increase in proliferation began” value ([13]; T47D, optimal AMD3100 dose, relative to MDA-MB-231) was “at a later time point”. The “optimum time for AMD3100-mediated proliferation” value ([13]; T47D, optimal AMD3100 dose, various times (FIG. 1G)) was 48 h.
For N.N.O=C([O-])C1(C(=O)[O-])CCC1.[Pt+2] [carboplatin], the “response to carboplatin (viable cells / viability) in co-culture with MSCs” value ([2]; MDA-MB-231 + MSCs 12 days, carboplatin 72 hours, no AMD3100, compared to breast cancer cells alone) was “chemoresistant”, the “response to carboplatin (viable cells / viability) in co-culture with MSCs” value ([3]; T47D + MSCs 12 days, carboplatin 72 hours, no AMD3100, compared to breast cancer cells alone) was “chemoresistant” and the “mean tumor volume by D12” value ([5]; group A: breast cancer cells injected alone, carboplatin at days 8 and 10) was “drastic reduction in mean tumor volume”. The “mean tumor volume by D12” value ([5]; group B: breast cancer cells co-injected with MSCs, carboplatin at days 8 and 10, effect on the reduction seen in group A) was “significantly (p<0.05) impeded”.
For “IL-1ra: IL-1 receptor antagonist used to block the activity of IL-1 in the mouse tumor model”, the “mean tumor volume by D12” value ([5]; group D: group C plus IL-1ra co-treatment, effect on the AMD3100 response) was “negated this response”.

Reference: patent publication US20110207814A1, “Combination Therapy for Breast Cancer Treatment” (priority 2009, published 2011)
